Experimental data: patent publication US9617256B2 (priority 2007, dated 2017)
≈ marks a conversion by molar mass, not a printed value.

Key:
AECO001 (ATCC25922) = assay: MIC broth microdilution, AECO001; assay type: cell-based, E. coli; conditions: Escherichia coli, ATCC25922, read-out: MIC AECO001
Method in brief: (§1)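 CLSI-guided microdilution: bacteria passaged overnight at 35° C. on Mueller-Hinton agar, tested in cation-adjusted broth at a final 3×10^5–7×10^5 CFU/mL across 2-fold drug dilutions, read after 18-24 h at 35° C.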

[1] = test system: APAE006 (strain of P. aeruginosa in which all efflux pumps are inactivated); assay: microbe, parasite or virus in culture; assay type: cell-based; conditions: Pseudomonas aeruginosa, read-out: MIC APAE006, P. aeruginosa, all efflux pumps inactivated
Method in brief: (§2)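 MICs come from broth microdilution in cation-adjusted Mueller-Hinton broth, final inoculum 3×10^5–7×10^5 CFU/mL, 18-24 hours at 35° C. Levofloxacin and QC strains served as assay controls.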

[2] = test system: AECO063 (ATCC25922 bearing an acrAB mutation); assay: microbe, parasite or virus in culture; assay type: cell-based, E. coli; conditions: Escherichia coli, ATCC25922, read-out: MIC AECO063
Method in brief: as §1

APAE001 (ATCC27853) = assay: MIC broth microdilution, APAE001; assay type: cell-based, P. aeruginosa; conditions: Pseudomonas aeruginosa, ATCC27853, read-out: MIC APAE001, APAE001 is ATCC27853
Method in brief: as §1

[3] = test system: APAE006 in the presence of 8 micrograms per milliliter of polymyxin B nonapeptide; assay type: cell-based, P. aeruginosa; conditions: in the presence of 8 micrograms per milliliter of polymyxin B nonapeptide
Method in brief: as §2

[4] = test system: AABA1060 (clinical isolate of Acinetobacter baumannii); assay: MIC broth microdilution, AABA1060; assay type: cell-based; conditions: Acinetobacter baumannii, read-out: MIC AABA1060
Method in brief: as §1

AECO001 HSA AGP = assay: MIC broth microdilution, AECO001 HSA AGP; assay type: cell-based, E. coli; conditions: Escherichia coli
Method in brief: as §1

[5] = test system: ASAU001 (laboratory strain of S. aureus, ATCC29213); assay: MIC broth microdilution, ASAU001; assay type: cell-based; conditions: Staphylococcus aureus, ATCC29213, read-out: MIC ASAU001
Method in brief: as §1

CCOCc1ccc(C#C/C=C/c2ccc(C(=O)N[C@H](C(=O)NO)[C@@H](C)N)cc2)cc1 [Example 113-10]
MIC (AECO001 (ATCC25922)): < 2 µg/mL
MIC [1]: < 2 µg/mL
MIC [2]: < 2 µg/mL
MIC (APAE001 (ATCC27853)): 2 to 16 µg/mL (≈ 4.74 to 38 µM)
MIC APAE006 + PMBN [3]: A (MIC's of 2.0 μg/mL or less = A)
MIC [4]: 2 to 16 µg/mL (≈ 4.74 to 38 µM)
MIC (AECO001 HSA AGP): 2 to 16 µg/mL (≈ 4.74 to 38 µM)
MIC [5]: 16 to 64 µg/mL (≈ 38 to 152 µM)

O=C(CNC1CC1)NC[C@H](NC(=O)c1ccc(/C=C/C#Cc2ccc(CO)cc2)cc1)C(=O)NO [Example 113-11]
MIC (AECO001 (ATCC25922)): < 2 µg/mL
MIC [1]: < 2 µg/mL
MIC [2]: < 2 µg/mL
MIC (APAE001 (ATCC27853)): 2 to 16 µg/mL (≈ 4.2 to 33.6 µM)
MIC APAE006 + PMBN [3]: A (MIC's of 2.0 μg/mL or less = A)
MIC [4]: 16 to 64 µg/mL (≈ 33.6 to 134 µM)
MIC (AECO001 HSA AGP): 16 to 64 µg/mL (≈ 33.6 to 134 µM)
MIC [5]: > 64 µg/mL

C[C@@H](N)[C@H](NC(=O)c1ccc(/C=C/C#Cc2ccccc2)cc1)C(=O)NO [Example 114-1, N-((1S,2R)-2-Amino-1-hydroxycarbamoyl-propyl)-4-((E)-4-phenyl-but-1-en-3-ynyl)-benzamide]
MIC (AECO001 (ATCC25922)): < 2 µg/mL
MIC [1]: < 2 µg/mL
MIC [2]: < 2 µg/mL
MIC (APAE001 (ATCC27853)): < 2 µg/mL
MIC APAE006 + PMBN [3]: A (MIC's of 2.0 μg/mL or less = A)
MIC [4]: < 2 µg/mL
MIC (AECO001 HSA AGP): 2 to 16 µg/mL (≈ 5.5 to 44 µM)
MIC [5]: 2 to 16 µg/mL (≈ 5.5 to 44 µM)

C[C@@H](N)[C@H](NC(=O)c1ccc(/C=C/C#Cc2ccc(F)cc2)cc1)C(=O)NO [Example 114-2]
MIC (AECO001 (ATCC25922)): < 2 µg/mL
MIC [1]: < 2 µg/mL
MIC [2]: < 2 µg/mL
MIC (APAE001 (ATCC27853)): 2 to 16 µg/mL (≈ 5.24 to 41.9 µM)
MIC APAE006 + PMBN [3]: A (MIC's of 2.0 μg/mL or less = A)
MIC [4]: 2 to 16 µg/mL (≈ 5.24 to 41.9 µM)
MIC (AECO001 HSA AGP): 2 to 16 µg/mL (≈ 5.24 to 41.9 µM)
MIC [5]: 16 to 64 µg/mL (≈ 41.9 to 168 µM)

C[C@@H](N)[C@H](NC(=O)c1ccc(/C=C/C#Cc2ccccc2F)cc1)C(=O)NO [Example 114-3]
MIC (AECO001 (ATCC25922)): < 2 µg/mL
MIC [1]: < 2 µg/mL
MIC [2]: < 2 µg/mL
MIC (APAE001 (ATCC27853)): < 2 µg/mL
MIC APAE006 + PMBN [3]: A (MIC's of 2.0 μg/mL or less = A)
MIC [4]: < 2 µg/mL
MIC (AECO001 HSA AGP): 2 to 16 µg/mL (≈ 5.24 to 41.9 µM)
MIC [5]: 16 to 64 µg/mL (≈ 41.9 to 168 µM)

C[C@@H](N)[C@H](NC(=O)c1ccc(/C=C/C#Cc2cccc(Cl)c2)cc1)C(=O)NO [Example 114-4]
MIC (AECO001 (ATCC25922)): < 2 µg/mL
MIC [1]: < 2 µg/mL
MIC [2]: < 2 µg/mL
MIC (APAE001 (ATCC27853)): 2 to 16 µg/mL (≈ 5.03 to 40.2 µM)
MIC APAE006 + PMBN [3]: A (MIC's of 2.0 μg/mL or less = A)
MIC [4]: 2 to 16 µg/mL (≈ 5.03 to 40.2 µM)
MIC (AECO001 HSA AGP): 2 to 16 µg/mL (≈ 5.03 to 40.2 µM)
MIC [5]: 2 to 16 µg/mL (≈ 5.03 to 40.2 µM)

C[C@@H](N)[C@H](NC(=O)c1ccc(/C=C/C#Cc2ccccc2Cl)cc1)C(=O)NO [Example 114-5]
MIC (AECO001 (ATCC25922)): < 2 µg/mL
MIC [1]: < 2 µg/mL
MIC [2]: < 2 µg/mL
MIC (APAE001 (ATCC27853)): 2 to 16 µg/mL (≈ 5.03 to 40.2 µM)
MIC APAE006 + PMBN [3]: A (MIC's of 2.0 μg/mL or less = A)
MIC [4]: < 2 µg/mL
MIC (AECO001 HSA AGP): 2 to 16 µg/mL (≈ 5.03 to 40.2 µM)
MIC [5]: 2 to 16 µg/mL (≈ 5.03 to 40.2 µM)

C[C@@H](N)[C@H](NC(=O)c1ccc(/C=C/C#Cc2ccc(C(F)(F)F)cc2)cc1)C(=O)NO [Example 114-6]
MIC (AECO001 (ATCC25922)): < 2 µg/mL
MIC [1]: 2 to 16 µg/mL (≈ 4.64 to 37.1 µM)
MIC [2]: < 2 µg/mL
MIC (APAE001 (ATCC27853)): 2 to 16 µg/mL (≈ 4.64 to 37.1 µM)
MIC APAE006 + PMBN [3]: A (MIC's of 2.0 μg/mL or less = A)
MIC [4]: 2 to 16 µg/mL (≈ 4.64 to 37.1 µM)
MIC (AECO001 HSA AGP): 2 to 16 µg/mL (≈ 4.64 to 37.1 µM)
MIC [5]: 2 to 16 µg/mL (≈ 4.64 to 37.1 µM)

C[C@@H](N)[C@H](NC(=O)c1ccc(/C=C/C#Cc2ccc(OC(F)(F)F)cc2)cc1)C(=O)NO [Example 114-7]
MIC (AECO001 (ATCC25922)): 2 to 16 µg/mL (≈ 4.47 to 35.8 µM)
MIC [1]: 2 to 16 µg/mL (≈ 4.47 to 35.8 µM)
MIC [2]: < 2 µg/mL
MIC (APAE001 (ATCC27853)): 2 to 16 µg/mL (≈ 4.47 to 35.8 µM)
MIC APAE006 + PMBN [3]: A (MIC's of 2.0 μg/mL or less = A)
MIC [4]: 2 to 16 µg/mL (≈ 4.47 to 35.8 µM)
MIC (AECO001 HSA AGP): 2 to 16 µg/mL (≈ 4.47 to 35.8 µM)
MIC [5]: 2 to 16 µg/mL (≈ 4.47 to 35.8 µM)

C[C@@H](N)[C@H](NC(=O)c1ccc(/C=C/C#Cc2ccncc2)cc1)C(=O)NO [Example 114-8]
MIC (AECO001 (ATCC25922)): < 2 µg/mL
MIC [1]: < 2 µg/mL
MIC [2]: < 2 µg/mL
MIC (APAE001 (ATCC27853)): < 2 µg/mL
MIC APAE006 + PMBN [3]: A (MIC's of 2.0 μg/mL or less = A)
MIC [4]: 2 to 16 µg/mL (≈ 5.49 to 43.9 µM)
MIC (AECO001 HSA AGP): 2 to 16 µg/mL (≈ 5.49 to 43.9 µM)
MIC [5]: 16 to 64 µg/mL (≈ 43.9 to 176 µM)

C[C@@H](N)[C@H](NC(=O)c1ccc(/C=C/C#Cc2cccnc2)cc1)C(=O)NO [Example 114-9]
MIC (AECO001 (ATCC25922)): 2 to 16 µg/mL (≈ 5.49 to 43.9 µM)
MIC [1]: < 2 µg/mL
MIC [2]: < 2 µg/mL
MIC (APAE001 (ATCC27853)): < 2 µg/mL
MIC APAE006 + PMBN [3]: A (MIC's of 2.0 μg/mL or less = A)
MIC [4]: 2 to 16 µg/mL (≈ 5.49 to 43.9 µM)
MIC (AECO001 HSA AGP): 2 to 16 µg/mL (≈ 5.49 to 43.9 µM)
MIC [5]: 16 to 64 µg/mL (≈ 43.9 to 176 µM)

C[C@@H](N)[C@H](NC(=O)c1ccc(/C=C/C#Cc2ccc(Cl)cc2)cc1)C(=O)NO [Example 114-10]
MIC (AECO001 (ATCC25922)): < 2 µg/mL
MIC [1]: < 2 µg/mL
MIC [2]: < 2 µg/mL
MIC (APAE001 (ATCC27853)): 2 to 16 µg/mL (≈ 5.03 to 40.2 µM)
MIC APAE006 + PMBN [3]: A (MIC's of 2.0 μg/mL or less = A)
MIC [4]: 2 to 16 µg/mL (≈ 5.03 to 40.2 µM)
MIC (AECO001 HSA AGP): 2 to 16 µg/mL (≈ 5.03 to 40.2 µM)
MIC [5]: 16 to 64 µg/mL (≈ 40.2 to 161 µM)
